One compound from patent US7704976B2, “Use of N-acetyl-D-glucosamine for preparing medicines for urogenital tract infection's treatment and prevention” (Third Military Medical University, Chinese People's …, priority 2002, dated 2010) can be followed below.

One data set deals with Proteus Mirabilis. Nature of the data set: Promoting wave test (bio-wave model on LB plate). It counts as cell-based. The note with it: final concentration of 0.5% on LB plate, 37° C. The source says:
1. […] 1.3 Experimental Method:

The conditions of data set [1]: in vivo. The text has this: II. Toxicological Test of the Compound of Formula (I), Including:
• 1. Acute toxicity test: including tests of oral administration, intravenous injection administration, and maximum limit amount for administration. • 2. Ames test; • 3. Micronucleus test of mouse bone marrow cell; • 4. Abnormality test of mouse sperm; • 5. Aberration test of mouse testis chromosome; • 6. Chronic lethal test; • 7. Subchronic toxicity (feed for 90 days) test; • 8. Traditional deformity-inducing test.

A further data set has as its system bacillus pyocyaneus. The experiment in a line: Test of effect for suppressing bacillus pyocyaneus transplantation on skin. The text has this:
(§1) III. Tests of Effect for Suppressing Bacterial Transplantation
(§2) • 1. Test of effect for suppressing bacillus pyocyaneus transplantation on skin • 2. Test of suppressing bacteria

The next data set relates to bacteria. Nature of the data set: Test of suppressing bacteria. Format: cell-based.
Text: as §1, §2

The next data set has as its system Gonorrhea. Nature of the data set: Clinic test, gonorrhea patients. It counts as in vivo, human. The note with it: 2% aerosol topically sprayed to infected areas. How it is done:
(§3) • 1. 170 patients suffering various venereal diseases were picked out, including 50 patients suffering gonorrhea, 50 patients suffering syphilis, 20 patients suffering condyloma acuminatum virus infection, 40 patients suffering trichomonas vaginalis infection, and 10 patients suffering candida albicans. 2% N-acetyl-D-glucosamine aerosol was topically sprayed to infected areas, and the effects of the compound of formula (I) for treatment of urogenital tract infections were determined by smearing and microscopic examination, and by isolation and culture.
(§4) Observation of therapeutical effect of N-acetyl-D-glucosamine for treatment of urogenital tract infections

The subject of another data set is Syphilis. The experiment in a line: Clinic test, syphilis patients. It counts as in vivo, human. The note with it: 2% aerosol topically sprayed to infected areas. How it is done: as §3, §4
For data set [2], the system named is condyloma acuminatum virus infection. The experiment in a line: Clinic test, condyloma acuminatum virus infection patients. It counts as in vivo, human. Conditions: 2% aerosol topically sprayed to infected areas. How it is done: as §3, §4
Data set [3] deals with trichomonas vaginalis infection. The experiment in a line: Clinic test, trichomonas vaginalis infection patients. Format: in vivo, human. Conditions: 2% aerosol topically sprayed to infected areas. As for the experimental part:
as §3, §4

A further data set has as its system candida albicans. Nature of the data set: Clinic test, candida albicans patients. Format: in vivo, human. The note with it: 2% aerosol topically sprayed to infected areas. How it is done:
as §3, §4

The subject of data set [4] is various urogenital tract infections.

With `CC(=O)N[C@H]1C(O)O[C@H](CO)[C@@H](O)[C@@H]1O` (stereo partly drawn) [N-acetyl-D-glucosamine], the “promoting wave function (ring pattern versus control)” value with Proteus Mirabilis is given as “many fine waves on each ring emerged”. For the same compound, the “dosage at which acute toxicosis reaction had not appeared” value in data set [1] is “more than 2 g/kg”. The “transplantation and growth of bacillus pyocyaneus” value in the data set with bacillus pyocyaneus was “suppressed the transplantation and growth of bacillus pyocyaneus”. Besides, the “bactericidal or bacteriostasis effect” value in the data set on bacteria is “essentially exhibited no bactericidal or bacteriostasis effect”. In addition, the “Effective rate (%)” value in the data set with Gonorrhea was 90%; in the data set with Syphilis it was 60%; in data set [2], 80%; in [3], 75%; in the data set on candida albicans, 90%. The “Ineffective rate (%)” value is recorded as 10% in the data set with Gonorrhea; 40% with Syphilis; 20% in [2]; 25% in data set [3]; 10% with candida albicans. Besides, in [4], the “effective rate for treatment of various urogenital tract infections” value was found to be 79%.
